Like-named read-outs stand apart in the source and are kept apart here.
Assays:
[1] = molecular target: EGFR del19/T790M/C797S (Homo sapiens, UniProt P00533, C797S/DEL746-750/T790M); experiment: Biochemical EGFR kinase assay (Lance Ultra TR-FRET), triple mutant del19/T790M/C797S
How it was run: (§1)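 In this biochemical assay, phosphorylation after a one-hour room-temperature reaction was detected with europium-labelled anti-phosphopeptide antibody at 2 nM final concentration.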

[2] = molecular target: EGFR L858R/C797S (Homo sapiens, UniProt P00533, C797S/L858R); experiment: Biochemical EGFR kinase assay (Lance Ultra TR-FRET), double mutant L858R/C797S
EGFR L858R/C797S, sequence (P00533 25-1210 C797S/L858R): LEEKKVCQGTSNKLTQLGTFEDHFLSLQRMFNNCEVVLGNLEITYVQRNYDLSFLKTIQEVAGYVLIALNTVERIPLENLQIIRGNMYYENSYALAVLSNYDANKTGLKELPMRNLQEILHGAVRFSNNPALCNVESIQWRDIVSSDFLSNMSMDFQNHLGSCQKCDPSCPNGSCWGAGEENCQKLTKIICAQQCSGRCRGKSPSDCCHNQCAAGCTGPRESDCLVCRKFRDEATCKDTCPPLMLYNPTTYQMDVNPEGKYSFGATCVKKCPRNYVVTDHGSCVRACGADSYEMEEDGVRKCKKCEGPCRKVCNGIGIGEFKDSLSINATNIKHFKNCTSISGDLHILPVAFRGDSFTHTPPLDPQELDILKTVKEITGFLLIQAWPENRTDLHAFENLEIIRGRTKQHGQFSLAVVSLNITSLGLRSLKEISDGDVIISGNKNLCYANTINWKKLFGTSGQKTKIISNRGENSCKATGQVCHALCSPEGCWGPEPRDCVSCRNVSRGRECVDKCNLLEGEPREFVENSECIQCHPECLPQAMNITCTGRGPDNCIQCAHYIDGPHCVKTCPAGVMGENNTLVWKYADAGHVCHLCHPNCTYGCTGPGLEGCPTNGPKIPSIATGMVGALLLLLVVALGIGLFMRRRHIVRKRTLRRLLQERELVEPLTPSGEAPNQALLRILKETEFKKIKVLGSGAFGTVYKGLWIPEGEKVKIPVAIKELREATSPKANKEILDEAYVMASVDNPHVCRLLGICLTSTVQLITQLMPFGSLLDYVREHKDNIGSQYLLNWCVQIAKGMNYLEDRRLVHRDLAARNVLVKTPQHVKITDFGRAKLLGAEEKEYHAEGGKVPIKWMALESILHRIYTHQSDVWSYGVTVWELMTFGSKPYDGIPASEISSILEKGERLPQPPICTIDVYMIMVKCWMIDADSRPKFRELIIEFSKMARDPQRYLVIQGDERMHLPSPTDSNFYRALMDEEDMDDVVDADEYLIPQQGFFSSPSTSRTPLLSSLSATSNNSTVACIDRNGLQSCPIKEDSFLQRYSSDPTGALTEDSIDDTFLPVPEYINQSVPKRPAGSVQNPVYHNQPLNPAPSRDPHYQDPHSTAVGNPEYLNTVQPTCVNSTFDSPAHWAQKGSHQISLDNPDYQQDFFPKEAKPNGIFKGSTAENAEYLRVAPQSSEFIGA
How it was run: as §1

[3] = molecular target: EGFR del19/C797S (Homo sapiens, UniProt P00533, C797S/DEL746-750); experiment: Biochemical EGFR kinase assay (Lance Ultra TR-FRET), double mutant del19/C797S
EGFR del19/C797S, sequence (P00533 with tags, fused parts or gaps DEL746-750/C797S): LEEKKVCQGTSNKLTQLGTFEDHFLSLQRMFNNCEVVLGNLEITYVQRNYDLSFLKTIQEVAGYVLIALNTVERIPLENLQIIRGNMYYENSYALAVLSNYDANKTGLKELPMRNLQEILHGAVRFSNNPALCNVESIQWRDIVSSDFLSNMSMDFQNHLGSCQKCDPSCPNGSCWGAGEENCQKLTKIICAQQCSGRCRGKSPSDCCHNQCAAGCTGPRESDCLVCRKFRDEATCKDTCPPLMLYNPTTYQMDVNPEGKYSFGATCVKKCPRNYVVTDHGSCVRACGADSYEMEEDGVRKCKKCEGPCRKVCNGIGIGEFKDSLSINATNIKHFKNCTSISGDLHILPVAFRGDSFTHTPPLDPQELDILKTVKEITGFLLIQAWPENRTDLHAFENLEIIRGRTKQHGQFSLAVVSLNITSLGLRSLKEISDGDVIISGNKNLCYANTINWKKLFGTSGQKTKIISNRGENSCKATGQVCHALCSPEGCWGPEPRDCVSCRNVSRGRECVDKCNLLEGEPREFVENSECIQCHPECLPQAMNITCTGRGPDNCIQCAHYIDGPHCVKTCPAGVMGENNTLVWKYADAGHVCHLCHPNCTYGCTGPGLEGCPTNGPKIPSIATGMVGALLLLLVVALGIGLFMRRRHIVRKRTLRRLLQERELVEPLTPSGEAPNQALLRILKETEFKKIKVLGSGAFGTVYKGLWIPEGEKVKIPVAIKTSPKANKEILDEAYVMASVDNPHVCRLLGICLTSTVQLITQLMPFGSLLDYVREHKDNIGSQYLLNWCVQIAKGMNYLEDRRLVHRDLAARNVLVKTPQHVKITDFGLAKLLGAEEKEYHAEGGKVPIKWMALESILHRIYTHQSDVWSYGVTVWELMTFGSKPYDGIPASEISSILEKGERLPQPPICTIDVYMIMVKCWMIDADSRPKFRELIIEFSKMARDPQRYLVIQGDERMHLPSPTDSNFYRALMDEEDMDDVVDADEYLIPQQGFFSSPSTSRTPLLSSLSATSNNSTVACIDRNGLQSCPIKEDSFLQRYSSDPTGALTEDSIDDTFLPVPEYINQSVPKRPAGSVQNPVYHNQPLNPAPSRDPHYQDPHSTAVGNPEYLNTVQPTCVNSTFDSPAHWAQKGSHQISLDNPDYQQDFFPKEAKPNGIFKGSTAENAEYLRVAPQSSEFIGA
How it was run: as §1

[4] = molecular target: EGFR wildtype (Homo sapiens, UniProt P00533); experiment: Biochemical EGFR kinase assay (Lance Ultra TR-FRET), wildtype
How it was run: as §1

[5] = molecular target: EGFR L858R/T790M/C797S (Homo sapiens, UniProt P00533, C797S/L858R/T790M); experiment: Biochemical EGFR kinase assay (Lance Ultra TR-FRET), triple mutant L858R/T790M/C797S
EGFR L858R/T790M/C797S, sequence (P00533 25-1210 T790M/C797S/L858R): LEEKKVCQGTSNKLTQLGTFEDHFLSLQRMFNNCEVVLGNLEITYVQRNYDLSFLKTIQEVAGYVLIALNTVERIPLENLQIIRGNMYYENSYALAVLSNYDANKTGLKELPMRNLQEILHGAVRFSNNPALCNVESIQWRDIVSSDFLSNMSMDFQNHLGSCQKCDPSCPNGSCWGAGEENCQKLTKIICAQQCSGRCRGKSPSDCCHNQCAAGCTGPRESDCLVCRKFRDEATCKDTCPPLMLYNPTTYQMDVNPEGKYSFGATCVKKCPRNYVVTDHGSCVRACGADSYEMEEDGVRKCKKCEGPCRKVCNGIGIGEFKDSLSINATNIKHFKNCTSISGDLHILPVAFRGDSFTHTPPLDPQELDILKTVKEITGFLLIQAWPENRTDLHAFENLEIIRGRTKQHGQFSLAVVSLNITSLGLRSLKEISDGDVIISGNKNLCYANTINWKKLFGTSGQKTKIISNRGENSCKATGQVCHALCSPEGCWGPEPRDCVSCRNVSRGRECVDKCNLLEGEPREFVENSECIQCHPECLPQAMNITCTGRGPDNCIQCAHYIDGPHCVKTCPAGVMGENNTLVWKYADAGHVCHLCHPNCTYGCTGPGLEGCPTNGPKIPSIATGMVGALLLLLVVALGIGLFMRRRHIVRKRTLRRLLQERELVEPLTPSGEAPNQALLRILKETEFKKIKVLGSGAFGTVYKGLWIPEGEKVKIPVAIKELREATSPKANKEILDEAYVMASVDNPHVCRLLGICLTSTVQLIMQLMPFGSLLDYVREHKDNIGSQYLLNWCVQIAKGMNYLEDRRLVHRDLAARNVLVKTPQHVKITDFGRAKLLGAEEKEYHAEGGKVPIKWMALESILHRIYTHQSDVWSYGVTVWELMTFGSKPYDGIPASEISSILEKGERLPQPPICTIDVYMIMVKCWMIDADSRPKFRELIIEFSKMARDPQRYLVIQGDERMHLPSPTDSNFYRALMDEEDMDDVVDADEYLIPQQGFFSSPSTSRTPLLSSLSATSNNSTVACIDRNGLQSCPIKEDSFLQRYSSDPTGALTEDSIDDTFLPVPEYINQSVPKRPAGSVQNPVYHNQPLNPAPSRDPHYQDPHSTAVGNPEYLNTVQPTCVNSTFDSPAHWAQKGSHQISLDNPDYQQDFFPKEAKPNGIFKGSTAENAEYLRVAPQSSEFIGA
How it was run: as §1

[6] = IC50 del19/T790M/C797S, 100 μM ATP
[7] = ATP at Km, read-out: IC50 WT, Km ATP
[8] = IC50 L858R/T790M/C797S, 100 μM ATP
[9] = ATP at Km, read-out: IC50 del19/T790M/C797S, Km ATP
[10] = ATP at Km, read-out: IC50 L858R/C797S, Km ATP
[11] = ATP at Km, read-out: IC50 del19/C797S, Km ATP
[12] = ATP at Km, read-out: IC50 L858R/T790M/C797S, Km ATP
[13] = Km ATP, read-out: IC50 del19/T790M/C797S (nM) Km ATP
[14] = Km ATP, read-out: IC50 L858R/C797S (nM) Km ATP
[15] = Km ATP, read-out: IC50 del19/C797S (nM) Km ATP
[16] = Km ATP, read-out: IC50 WT (nM) Km ATP
[17] = Km ATP, read-out: IC50 L858R/T790M/C797S (nM) Km ATP
[18] = IC50 del19/T790M/C797S (nM) 100 μM ATP, 100 μM ATP
[19] = IC50 L858R/C797S (nM) 100 μM ATP, 100 μM ATP
[20] = IC50 del19/C797S (nM) 100 μM ATP, 100 μM ATP
[21] = IC50 WT (nM) 100 μM ATP, 100 μM ATP
[22] = IC50 L858R/T790M/C797S (nM) 100 μM ATP, 100 μM ATP

EGFR del19/T790M/C797S, sequence (P00533 with tags, fused parts or gaps DEL746-750/T790M/C797S): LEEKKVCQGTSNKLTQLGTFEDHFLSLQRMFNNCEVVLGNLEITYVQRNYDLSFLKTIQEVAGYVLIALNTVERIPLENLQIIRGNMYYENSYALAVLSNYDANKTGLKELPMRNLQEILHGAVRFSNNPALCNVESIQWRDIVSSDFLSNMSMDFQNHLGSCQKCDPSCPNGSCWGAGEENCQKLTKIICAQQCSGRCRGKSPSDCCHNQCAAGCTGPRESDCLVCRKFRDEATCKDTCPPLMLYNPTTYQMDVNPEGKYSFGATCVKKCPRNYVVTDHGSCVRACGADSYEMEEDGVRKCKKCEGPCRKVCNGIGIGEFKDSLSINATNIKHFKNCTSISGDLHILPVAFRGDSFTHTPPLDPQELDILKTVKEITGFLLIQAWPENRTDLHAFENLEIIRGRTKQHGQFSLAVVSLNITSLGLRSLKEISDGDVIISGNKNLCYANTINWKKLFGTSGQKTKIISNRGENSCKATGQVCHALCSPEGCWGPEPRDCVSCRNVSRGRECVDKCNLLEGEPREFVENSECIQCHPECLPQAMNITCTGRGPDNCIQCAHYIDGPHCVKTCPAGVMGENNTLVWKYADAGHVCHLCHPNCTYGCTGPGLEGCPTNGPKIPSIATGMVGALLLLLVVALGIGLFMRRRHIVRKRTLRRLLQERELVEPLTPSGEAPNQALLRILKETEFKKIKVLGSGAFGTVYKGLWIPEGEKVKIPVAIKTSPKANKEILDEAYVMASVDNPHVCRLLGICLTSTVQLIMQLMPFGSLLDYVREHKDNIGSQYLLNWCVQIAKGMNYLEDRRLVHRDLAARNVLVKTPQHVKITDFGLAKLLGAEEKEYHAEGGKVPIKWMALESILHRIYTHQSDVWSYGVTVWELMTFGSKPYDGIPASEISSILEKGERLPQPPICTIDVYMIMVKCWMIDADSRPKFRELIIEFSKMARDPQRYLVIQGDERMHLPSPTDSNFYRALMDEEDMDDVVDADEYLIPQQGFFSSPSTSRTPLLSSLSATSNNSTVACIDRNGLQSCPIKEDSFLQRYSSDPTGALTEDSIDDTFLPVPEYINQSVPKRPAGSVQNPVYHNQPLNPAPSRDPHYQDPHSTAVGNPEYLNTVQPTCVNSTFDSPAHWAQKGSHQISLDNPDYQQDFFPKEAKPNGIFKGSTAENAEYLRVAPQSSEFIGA

Row | IC50 [1, 6] [nM] | IC50 ([2]; IC50 L858R/C797S, 100 μM ATP) [nM] | IC50 ([3]; IC50 del19/C797S, 100 μM ATP) [nM] | IC50 [4, 7] [nM] | IC50 ([4]; IC50 WT, 100 μM ATP) [nM] | IC50 [5, 8] [nM] | IC50 [1, 9] [nM] | IC50 [2, 10] [nM] | IC50 [3, 11] [nM] | IC50 [5, 12] [nM] | IC50 [1, 13] [nM] | IC50 [2, 14] [nM] | IC50 [3, 15] [nM] | IC50 [4, 16] [nM] | IC50 [5, 17] [nM] | IC50 [1, 18] [nM] | IC50 [2, 19] [nM] | IC50 [3, 20] [nM] | IC50 [4, 21] [nM] | IC50 [5, 22] [nM] | SMILES
1 | 14.7 | 51.1 | 80.6 | 111 | > 10000 | 2.6 |  |  |  |  |  |  |  |  |  |  |  |  |  |  | CC(C)(O)[C@H]1CC[C@@H](Nc2cc(Nc3ccnc(-c4cnn(S(=O)(=O)C5CC5)c4)n3)ncc2-c2cccc(CC(F)(F)F)n2)CC1 [Example 247, 2-((1s,4s)-4-((6′-((2-(1-(Cyclopropylsulfonyl)-1H-pyrazol-4-yl)pyrimidin-4-yl)amino)-6-(2,2,2-trifluoroethyl)-[2,3′-bipyridin]-4′-yl)amino)cyclohexyl)propan-2-ol]
2 | 0.9 | 2.4 | 0.6 | 1.2 | 348 | 0.4 | 0.6 | 0.4 | 0.7 | 0.3 |  |  |  |  |  |  |  |  |  |  | O=S(=O)(C1CC1)n1cc(-c2nccc(Nc3cc(N[C@H]4CC[C@@H](CO)CC4)c(-c4ccc(OCCO)cn4)cn3)n2)cn1 [Example 206, 2-((6′-((2-(1-(Cyclopropylsulfonyl)-1H-pyrazol-4-yl)pyrimidin-4-yl)amino)-4′-(((1s,4s)-4-(hydroxymethyl)cyclohexyl)amino)-[2,3′-bipyridin]-5-yl)oxy)ethan-1-ol]
3 |  |  |  |  |  |  |  |  |  |  | 0.5 | 6.4 | 19.1 | 69.8 | 0.2 |  |  |  |  |  | FC(F)Cn1cc(-c2nccc(Nc3cc(N[C@H]4CC[C@@H](F)CC4)c(-c4ccc(CN5CCOCC5)cn4)cn3)n2)cn1 [Example 136, N^6′-(2-(1-(2,2-difluoroethyl)-1H-pyrazol-4-yl)pyrimidin-4-yl)-N^4′-((1s,4s)-4-fluorocyclohexyl)-5-(morpholinomethyl)-[2,3′-bipyridine]-4′,6′-diamine]
4 | 1.2 | 1.4 | 1.3 | 0.8 | 136 | 0.7 | 1.2 | 0.3 | 0.8 | 0.8 |  |  |  |  |  |  |  |  |  |  | CN(C)C[C@H]1CC[C@@H](Nc2cc(Nc3ccnc(-c4cnn(S(=O)(=O)C5CC5)c4)n3)ncc2-c2cc(NC3CC(F)(F)C3)ccn2)CC1 [Example 216, N^6′-(2-(1-(Cyclopropylsulfonyl)-1H-pyrazol-4-yl)pyrimidin-4-yl)-N^4-(3,3-difluorocyclobutyl)-N^4′-((1s,4s)-4-((dimethylamino)methyl)cyclohexyl)-[2,3′-bipyridine]-4,4′,6′-triamine]
5 |  |  |  |  |  |  |  |  |  |  | 6.4 | 12.9 | 6.5 | 12.7 | 1.3 | 8.1 | 24.9 | 10.8 | 7220 | 5.3 | O=S(=O)(C1CC1)n1cc(-c2nccc(Nc3cc(N[C@H]4CC[C@@H](CO)CC4)c(-c4cc(N5CCC(F)(F)CC5)ccn4)cn3)n2)cn1 [Example 100, ((1s,4s)-4-((6′-((2-(1-(Cyclopropylsulfonyl)-1H-pyrazol-4-yl)pyrimidin-4-yl)amino)-4-(4,4-difluoropiperidin-1-yl)-[2,3′-bipyridin]-4′-yl)amino)cyclohexyl)methanol]
6 |  | 7.8 | 6 | 5 | 1660 | 0.6 | 1.1 | 2.4 | 1.7 | 0.4 |  |  |  |  |  |  |  |  |  |  | CC1(O)CCC(Nc2cc(Nc3ccnc(-c4cnn(S(=O)(=O)C5CC5)c4)n3)ncc2-c2ccc(C(C)(O)C(F)(F)F)cn2)CC1 (stereo not drawn) [Example 230, (1s,4s)-4-((6′-((2-(1-(Cyclopropylsulfonyl)-1H-pyrazol-4-yl)pyrimidin-4-yl)amino)-5-(1,1,1-trifluoro-2-hydroxypropan-2-yl)-[2,3′-bipyridin]-4′-yl)amino)-1-methylcyclohexan-1-ol]
7 |  |  |  |  |  |  |  |  |  |  | 12.5 | 1.4 | 5.6 | 9.2 |  | 11.4 | 7.3 | 9.7 | 5840 | 5.1 | C[C@]1(O)CC[C@@H](Nc2cc(Nc3ccnc(-c4cnn(S(=O)(=O)C5CC5)c4)n3)ncc2-c2ccc(N3CCCCC3)cn2)CC1 [Example 54, (1s,4s)-4-((6′-((2-(1-(Cyclopropylsulfonyl)-1H-pyrazol-4-yl)pyrimidin-4-yl)amino)-5-(piperidin-1-yl)-[2,3′-bipyridin]-4′-yl)amino)-1-methylcyclohexan-1-ol]
8 |  |  |  |  |  |  |  |  |  |  | 0.5 | 1.4 | 1.7 | 9.3 | 0.3 |  |  |  |  |  | CN1CCC(Oc2ccc(-c3cnc(Nc4ccnc(-c5cnn(CC(F)F)c5)n4)cc3N[C@H]3CC[C@@H](F)CC3)nc2)CC1 [Example 133, N^6′-(2-(1-(2,2-Difluoroethyl)-1H-pyrazol-4-yl)pyrimidin-4-yl)-N^4′-((1s,4s)-4-fluorocyclohexyl)-5-((1-methylpiperidin-4-yl)oxy)-[2,3′-bipyridine]-4′,6′-diamine]
9 |  |  |  |  |  |  |  |  |  |  | 8.5 | 15.7 | 27.1 | 46.8 | 2.8 | 11.2 | 33.7 | 29.9 | 653 | 4.5 | CC(C)(O)[C@H]1CC[C@@H](Nc2cc(Nc3ccnc(-c4cnn(S(=O)(=O)C5CC5)c4)n3)ncc2-c2cc(CN3CCC(F)(F)CC3)ccn2)CC1 [Example 114, 2-((1s,4s)-4-((6′-((2-(1-(Cyclopropylsulfonyl)-1H-pyrazol-4-yl)pyrimidin-4-yl)amino)-4-((4,4-difluoropiperidin-1-yl)methyl)-[2,3′-bipyridin]-4′-yl)amino)cyclohexyl)propan-2-ol]
10 |  |  |  |  |  |  |  |  |  |  | 1.7 | 2.1 | 2.1 | 2.2 | 0.4 | 0.9 | 14.4 | 2.4 | 575 | 0.7 | CN(C)C[C@H]1CC[C@@H](Nc2cc(Nc3ccnc(-c4cnn(S(=O)(=O)C5CC5)c4)n3)ncc2-c2cc(N3CCC(F)(F)CC3)ccn2)CC1 [Example 101, N^6′-(2-(1-(Cyclopropylsulfonyl)-1H-pyrazol-4-yl)pyrimidin-4-yl)-4-(4,4-difluoropiperidin-1-yl)-N^4′-((1s,4s)-4-((dimethylamino)methyl)cyclohexyl)-[2,3′-bipyridine]-4′,6′-diamine]
11 |  |  |  |  |  |  |  |  |  |  | 0.1 | 0.6 | 0.4 | 2 | 0.1 | 2.5 | 1.6 | 0.5 | 1560 | 2.7 | C[C@]1(O)CC[C@@H](Nc2cc(Nc3ccnc(-c4cnn(S(=O)(=O)C5CC5)c4)n3)ncc2-c2ccc(N3CCOCC3)nn2)CC1 [Example 43, (1s,4s)-4-((2-((2-(1-(Cyclopropylsulfonyl)-1H-pyrazol-4-yl)pyrimidin-4-yl)amino)-5-(6-morpholinopyridazin-3-yl)pyridin-4-yl)amino)-1-methylcyclohexan-1-ol]
12 | 2.1 | 60.2 | 9.5 | 19 | 8760 | 0.8 | 3.9 | 6.7 | 3.3 | 0.8 |  |  |  |  |  |  |  |  |  |  | CC(O)(c1ccc(-c2cnc(Nc3ccnc(-c4cnn(S(=O)(=O)C5CC5)c4)n3)cc2N[C@H]2CCC[C@H](CO)C2)nc1)C(F)(F)F (stereo partly drawn) [Example 232, 2-(6′-((2-(1-(Cyclopropylsulfonyl)-1H-pyrazol-4-yl)pyrimidin-4-yl)amino)-4′-(((1S,3S)-3-(hydroxymethyl)cyclohexyl)amino)-[2,3′-bipyridin]-5-yl)-1,1,1-trifluoropropan-2-ol]
13 |  |  |  |  |  |  |  |  |  |  | 1.9 | 1.4 | 2.4 | 14.5 | 0.8 | 1.6 | 52.7 | 5.3 | 4780 | 1.4 | O=S(=O)(C1CC1)n1cc(-c2nccc(Nc3cc(N[C@H]4CC[C@@H](CO)CC4)c(-c4ccc(N5CCC(F)(F)CC5)nn4)cn3)n2)cn1 [Example 69, ((1s,4s)-4-((2-((2-(1-(Cyclopropylsulfonyl)-1H-pyrazol-4-yl)pyrimidin-4-yl)amino)-5-(6-(4,4-difluoropiperidin-1-yl)pyridazin-3-yl)pyridin-4-yl)amino)cyclohexyl)methanol]

Source: patent US12258328B2, “6-membered heteroaryl-containing aminopyridine compounds as EGFR inhibitors” (YUHAN CORPORATION, priority 2021, dated 2025)
